Measurements reported in US8343961B2, “Substituted heterocyclic compounds” (ArQule, Inc., priority 2009, dated 2013).

What was measured:
RET kinase = RET kinase (Homo sapiens, UniProt P07949); experiment: RET Kinase Activity Assay; type: biochemical; conditions: read-out: Ret, % INH, at 30 uM
Experimental: The disclosed compounds were assayed for their ability to inhibit the activity of RET kinase. Nunc Maxwasorb plates were coated with streptavidin by overnight incubation with 100 μL per well of 1 μg/mL Streptavidin in DPBS. Prior to the start of the experiment, the plates were washed with TBST (3×200 μL) and blocked for at least 1 hour by adding 150 μL of 5% BSA/TBST. The plates were washed with TBST (3×200 […]) and left dry immediately before the capture step.
The test articles and controls (Staurosporine and Sutent) were prepared using the following assay buffer @ 3× desired final concentration (50 mM […], 0.02 mg/mL BSA, 10 mM MgCl2, 0.1 mM Na3VO4, 1 mM EGTA, 75 μM ATP0.01% NP-40, 2 mM DTT in 10% glycerol/water). In a reaction plate, were added rapidly 20 μL test article (or control) and 20 μL RET (0.25 ng/4 final concentration). The plate was incubated for 15 minutes. To the reaction plate was added 20 μL of Pyk-2 (0.25 ng/4 final concentration). The plate was incubated at room temperature for one hour.
From the reaction plate, 50 μL was transferred to the streptavidin coated plate. The capture plate was incubated at room temperature for 30 minutes then washed 6× with TBST. To the capture plate was added 100 μL/well of Cell Signaling anti-phospho tyrosine at a dilution of 1:3000 in 2% BSA/TBST. The plate was incubated for one hour at room temperature then washed 6× with TBST. To the capture plate was added 100 μL/well of Alkaline Phosphatase Tagged Goat anti Mouse Antibody at a dilution of 1:4000 in 2% BSA/TBST. The plate was incubated for one hour at room temperature then washed 6× with TBST. The fluorescent readout was initiated by the addition of 100 μL/well of Attophos reagent (6 mg/10 mL). The reading was done on the Perkin Elmer Envision system.

EphA8 = target: T1, EphA8 (Homo sapiens, UniProt P29322); experiment: EphA8 Kinase Activity Assay; type: biochemical; conditions: read-out: EphA8, % INH, at 30 uM
T1 sequence (P29322 28-1005): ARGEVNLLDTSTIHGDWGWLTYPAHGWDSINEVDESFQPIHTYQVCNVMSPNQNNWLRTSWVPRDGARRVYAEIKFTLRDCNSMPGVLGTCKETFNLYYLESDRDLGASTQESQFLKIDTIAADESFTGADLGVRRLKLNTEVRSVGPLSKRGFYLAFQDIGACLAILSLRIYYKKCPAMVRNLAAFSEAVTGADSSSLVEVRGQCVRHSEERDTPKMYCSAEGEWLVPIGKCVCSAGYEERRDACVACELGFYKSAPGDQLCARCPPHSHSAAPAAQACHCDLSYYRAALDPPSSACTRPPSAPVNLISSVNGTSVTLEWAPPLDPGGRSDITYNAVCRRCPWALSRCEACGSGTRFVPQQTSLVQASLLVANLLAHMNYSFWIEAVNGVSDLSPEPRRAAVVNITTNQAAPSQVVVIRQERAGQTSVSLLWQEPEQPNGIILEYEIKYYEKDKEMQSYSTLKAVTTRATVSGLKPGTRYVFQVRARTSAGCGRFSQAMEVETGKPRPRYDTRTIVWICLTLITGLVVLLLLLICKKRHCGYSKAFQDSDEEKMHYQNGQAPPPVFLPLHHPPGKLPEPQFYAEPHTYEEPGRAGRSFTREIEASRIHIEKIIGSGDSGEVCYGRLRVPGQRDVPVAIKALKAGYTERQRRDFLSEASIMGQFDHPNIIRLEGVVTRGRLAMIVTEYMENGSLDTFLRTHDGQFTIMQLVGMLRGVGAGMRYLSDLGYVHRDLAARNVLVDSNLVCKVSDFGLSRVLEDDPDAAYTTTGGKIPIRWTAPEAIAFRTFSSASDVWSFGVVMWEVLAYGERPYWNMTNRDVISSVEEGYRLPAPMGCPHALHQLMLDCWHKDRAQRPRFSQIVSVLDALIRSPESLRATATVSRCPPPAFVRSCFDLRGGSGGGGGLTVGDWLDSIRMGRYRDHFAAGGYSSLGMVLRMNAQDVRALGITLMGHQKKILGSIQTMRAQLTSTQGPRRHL
Experimental: Nunc Maxisorb plates are coated with streptavidin by overnight incubation with 100 μL per well of 1 μg/ml Streptavidin in DPBS. Prior to the start of the experiment, the plates are washed with TBST (3×200 μL) and blocked for at least 1 hour by adding 150 μL of 5% BSA/TBST. The plates are washed with TBST (3×200 μL/well) and left dry immediately before the capture step.
The test articles and control (Staurosporine) are prepared using the following assay buffer @ 3× desired final concentration (50 mM Tris-HCl, 0.02 mg/ml BSA, 10 mM MgCl2, 0.1 mM Na3VO4, 1 mM EGTA, 12.5 μM ATP, 0.01% NP-40, 1 mM DTT in 10% glycerol/water). In a reaction plate are added rapidly 20 μl test article (or control) and 20 μl EphA8 (0.12 ng/μl final concentration). The plate is incubated for 15 minutes. To the reaction plate is added 20 μl of Pyk-2 (0.75 ng/μl final concentration). The plate is incubated at room temperature for one hour. From the reaction plate, 50 μl is transferred to the streptavidin coated plate. The capture plate is incubated at room temperature for 30 minutes, then washed 6× with TBST. To the capture plate is added 100 μL/well of Cell Signaling anti-phospho tyrosine at a dilution of 1:3000 in 2% BSA/TBST. The plate is incubated for one hour at room temperature then washed 6× with TBST. To the capture plate is added 100 μL/well of Alkaline Phosphatase Tagged Goat anti Mouse Antibody at a dilution of 1:4000 in 2% BSA/TBST. The plate is incubated for one hour at room temperature then washed 6× with TBST. The fluorescent readout is initiated by the addition of 100 μl/well of Attophos reagent (6 mg/10 mL). The reading is done on the Perkin Elmer Envision system.

Chain of RET kinase (P07949 29-1114): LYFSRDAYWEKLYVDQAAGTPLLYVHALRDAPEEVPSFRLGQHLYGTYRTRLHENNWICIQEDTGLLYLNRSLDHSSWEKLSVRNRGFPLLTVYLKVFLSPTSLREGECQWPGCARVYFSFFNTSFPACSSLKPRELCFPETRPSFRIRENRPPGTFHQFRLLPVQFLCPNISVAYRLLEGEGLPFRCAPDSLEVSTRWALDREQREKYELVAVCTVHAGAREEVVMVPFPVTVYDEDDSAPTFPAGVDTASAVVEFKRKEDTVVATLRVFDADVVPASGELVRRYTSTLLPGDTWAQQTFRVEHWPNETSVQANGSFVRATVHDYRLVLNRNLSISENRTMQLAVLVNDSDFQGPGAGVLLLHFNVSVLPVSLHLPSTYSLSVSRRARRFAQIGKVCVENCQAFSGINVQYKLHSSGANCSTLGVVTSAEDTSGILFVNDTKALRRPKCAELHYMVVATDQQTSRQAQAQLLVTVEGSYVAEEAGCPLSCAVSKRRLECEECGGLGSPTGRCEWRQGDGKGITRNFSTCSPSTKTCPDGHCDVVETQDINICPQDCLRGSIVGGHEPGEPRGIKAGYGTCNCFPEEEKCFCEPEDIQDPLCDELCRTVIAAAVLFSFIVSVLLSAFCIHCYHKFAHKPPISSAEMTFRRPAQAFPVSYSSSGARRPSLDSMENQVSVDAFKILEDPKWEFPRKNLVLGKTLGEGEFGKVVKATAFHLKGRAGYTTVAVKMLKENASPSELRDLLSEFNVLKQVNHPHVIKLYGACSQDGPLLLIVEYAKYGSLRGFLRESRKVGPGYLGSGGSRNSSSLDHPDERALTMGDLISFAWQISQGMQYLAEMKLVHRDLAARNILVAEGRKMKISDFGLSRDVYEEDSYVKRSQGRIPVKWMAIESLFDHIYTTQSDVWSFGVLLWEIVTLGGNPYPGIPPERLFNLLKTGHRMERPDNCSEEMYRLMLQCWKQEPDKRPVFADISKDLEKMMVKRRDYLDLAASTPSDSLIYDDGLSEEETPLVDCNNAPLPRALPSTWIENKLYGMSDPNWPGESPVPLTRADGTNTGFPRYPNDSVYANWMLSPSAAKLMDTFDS

Row | SMILES | inhibition at 30 µM (RET kinase) | inhibition at 30 µM (EphA8)
1 | Nc1nc(N2CCN(Cc3ccc(Cl)cc3Cl)c3ccccc3C2)c2cn[nH]c2n1 [Compound 32, 4-[1-(2,4-dichlorobenzyl)-1,2,3,5-tetrahydro-4H-1,4-benzodiazepin-4-yl]-1H-pyrazolo[3,4-d]pyrimidin-6-amine] | < 50% | < 50%
2 | COc1ccc(CN2CCN(c3nc(N)nc4[nH]cnc34)Cc3ccccc32)cc1OC [Compound 27, 6-[1-(3,4-dimethoxybenzyl)-1,2,3,5-tetrahydro-4H-1,4-benzodiazepin-4-yl]-9H-purin-2-amine] | < 50% | < 50%
3 | COc1cccc(CN2CCN(c3nc(N)nc4[nH]cnc34)Cc3ccccc32)c1 [Compound 2, 6-[1-(3-methoxybenzyl)-1,2,3,5-tetrahydro-4H-1,4-benzodiazepin-4-yl]-9H-purin-2-amine] | 50 to 79% | < 50%
4 | COc1ccccc1CN1CCN(c2nc(N)nc3[nH]ncc23)Cc2ccccc21 [Compound 10, 4-[1-(2-methoxybenzyl)-1,2,3,5-tetrahydro-4H-1,4-benzodiazepin-4-yl]-1H-pyrazolo[3,4-d]pyrimidin-6-amine] | < 50% | < 50%
5 | Cc1ccc(CCCN2CCN(c3nc(N)nc4[nH]ncc34)Cc3ccccc32)cc1 [Compound 45, 4-{1-[3-(4-methylphenyl)propyl]-1,2,3,5-tetrahydro-4H-1,4-benzodiazepin-4-yl}-1H-pyrazolo[3,4-d]pyrimidin-6-amine] | 50 to 79% | 50 to 79%
6 | Nc1nc(N2CCN(Cc3cccc(C(F)(F)F)c3)c3ccccc3C2)c2cn[nH]c2n1 [Compound 21, 4-{1-[3-(trifluoromethyl)benzyl]-1,2,3,5-tetrahydro-4H-1,4-benzodiazepin-4-yl}-1H-pyrazolo[3,4-d]pyrimidin-6-amine] | < 50% | < 50%
7 | Nc1nc(N2CCN(Cc3ccc(F)c(F)c3)c3ccccc3C2)c2nc[nH]c2n1 [Compound 46, 6-[1-(3,4-difluorobenzyl)-1,2,3,5-tetrahydro-4H-1,4-benzodiazepin-4-yl]-9H-purin-2-amine] | 50 to 79% | < 50%
8 | Nc1nc(N2CCN(Cc3cccc(C(F)(F)F)c3)c3ccccc3C2)c2nc[nH]c2n1 [Compound 20, 6-{1-[3-(trifluoromethyl)benzyl]-1,2,3,5-tetrahydro-4H-1,4-benzodiazepin-4-yl}-9H-purin-2-amine] | < 50% | 50 to 79%
9 | COc1ccc(OC)c(CN2CCN(c3nc(N)nc4[nH]ncc34)Cc3ccccc32)c1 [Compound 36, 4-[1-(2,5-dimethoxybenzyl)-1,2,3,5-tetrahydro-4H-1,4-benzodiazepin-4-yl]-1H-pyrazolo[3,4-d]pyrimidin-6-amine] | < 50% | < 50%
10 | Nc1nc(N2CCN(CCCc3ccccc3)c3ccccc3C2)c2cn[nH]c2n1 [Compound 41, 4-[1-(3-phenylpropyl)-1,2,3,5-tetrahydro-4H-1,4-benzodiazepin-4-yl]-1H-pyrazolo[3,4-d]pyrimidin-6-amine] | < 50% | < 50%
11 | Cc1ccc(CCCN2CCN(c3nc(N)nc4[nH]cnc34)Cc3ccccc32)cc1 [Compound 44, 6-{1-[3-(4-methylphenyl)propyl]-1,2,3,5-tetrahydro-4H-1,4-benzodiazepin-4-yl}-9H-purin-2-amine] | < 50% | < 50%
12 | COc1cccc(CN2CCN(c3nc(N)nc4[nH]ncc34)Cc3ccccc32)c1 [Compound 1, 4-[1-(3-methoxybenzyl)-1,2,3,5-tetrahydro-4H-1,4-benzodiazepin-4-yl]-1H-pyrazolo[3,4-d]pyrimidin-6-amine] | 50 to 79% | 50 to 79%
13 | Nc1nc(N2CCN(Cc3cccc4ccccc34)c3ccccc3C2)c2nc[nH]c2n1 [Compound 17, 6-[1-(1-naphthylmethyl)-1,2,3,5-tetrahydro-4H-1,4-benzodiazepin-4-yl]-9H-purin-2-amine] | 50 to 79% | 50 to 79%
14 | Nc1nc(N2CCN(Cc3ccc(Cl)cc3Cl)c3ccccc3C2)c2nc[nH]c2n1 [Compound 31, 6-[1-(2,4-dichlorobenzyl)-1,2,3,5-tetrahydro-4H-1,4-benzodiazepin-4-yl]-9H-purin-2-amine] | < 50% | < 50%
15 | Nc1nc(N2CCN(Cc3ccc(Cl)c(Cl)c3)c3ccccc3C2)c2nc[nH]c2n1 [Compound 42, 6-[1-(3,4-dichlorobenzyl)-1,2,3,5-tetrahydro-4H-1,4-benzodiazepin-4-yl]-9H-purin-2-amine] | < 50% | < 50%
16 | Nc1nc(N2CCN(Cc3ccccc3Cl)c3ccccc3C2)c2nc[nH]c2n1 [Compound 13, 6-[1-(2-chlorobenzyl)-1,2,3,5-tetrahydro-4H-1,4-benzodiazepin-4-yl]-9H-purin-2-amine] | < 50% | < 50%
17 | Nc1nc(N2CCN(CCCc3cccc(Cl)c3)c3ccccc3C2)c2nc[nH]c2n1 [Compound 7, 6-{1-[3-(3-chlorophenyl)propyl]-1,2,3,5-tetrahydro-4H-1,4-benzodiazepin-4-yl}-9H-purin-2-amine] | < 50% | < 50%
18 | CC(C)(C)c1ccc(CN2CCN(c3nc(N)nc4[nH]ncc34)Cc3ccccc32)cc1 [Compound 30, 4-[1-(4-tert-butylbenzyl)-1,2,3,5-tetrahydro-4H-1,4-benzodiazepin-4-yl]-1H-pyrazolo[3,4-d]pyrimidin-6-amine] | 50 to 79% | < 50%
19 | Nc1nc(N2CCN(Cc3ccccc3Cl)c3ccccc3C2)c2cn[nH]c2n1 [Compound 14, 4-[1-(2-chlorobenzyl)-1,2,3,5-tetrahydro-4H-1,4-benzodiazepin-4-yl]-1H-pyrazolo[3,4-d]pyrimidin-6-amine] | < 50% | < 50%
20 | Nc1nc(N2CCN(Cc3cccc(Cl)c3)c3ccccc3C2)c2nc[nH]c2n1 [Compound 24, 6-[1-(3-chlorobenzyl)-1,2,3,5-tetrahydro-4H-1,4-benzodiazepin-4-yl]-9H-purin-2-amine] | 50 to 79% | 50 to 79%
